Reference: paper PMC5848165 (Toxins, 2018)
Residues, ends and D or L forms follow the SMILES beside them.

Key:
[1] = test system: chimera #2, Nav1.7 (Nav1.5-DIV-S3-S4); assay: Whole-cell patch clamp, chimera #2 in HEK293 cells; format: cell-based, human Nav1.7 / rat Nav1.5; conditions: n = 5, −10 mV from −80 mV
Text: Many animal toxins alter activation or inactivation of sodium channels by binding to the S3–S4 regions of channels, which are probably the external linkers or voltage sensors of sodium channels. α-Scorpion toxins slow down fast-inactivation of sodium channels by binding to the extracellular linker loop of DIVS3-S4 (neurotoxin site 3). Meanwhile, β-scorpion toxins that interact with DIIS3-S4 linker enhance the activation of sodium channels by trapping DII voltage sensor in an activated state. As Nav1.5 channel is resistant to the inhibition of JZTX-34, we investigated the binding site of JZTX-34 to Nav1.7 by constructing chimeric channels between Nav1.5 and Nav1.7. […]
(§1) The HEK293T cells were maintained in standard culture conditions (5% CO2 and 37 °C). […] After culturing for 36–72 h, cells with obvious green fluorescence were selected for sodium currents recordings the internal solution for sodium currents recording that contained (in mM) 140 CsF, 5 NaCl, 10 HEPES, 3 Na2-ATP, and 10 EGTA. […]
(§2) Sodium currents were recorded from DRG, HEK293, and ND cells by the whole-cell patch-clamp technique at 25 °C. […] Experiments date were acquired from whole-cell Axon 700B patch clamp amplifier (Molecular Devices, Sunnyvale, CA, USA) and analyzed by the program Clampfit10.0 (Molecular Devices, Sunnyvale, CA, USA) and Sigmaplot. […]

Nav1.7 D816R = biological target: T1, Nav1.7 D816R (Homo sapiens, UniProt Q15858, D827R); assay: Whole-cell patch clamp, Nav1.7 mutant D816R in HEK293 cells; format: cell-based
T1 construct: expressed in transfected cells; host or cells: HEK293 (HEK293T) cells, transient
T1 sequence (Q15858 other isoform, or with tags, fused parts or gaps D816R): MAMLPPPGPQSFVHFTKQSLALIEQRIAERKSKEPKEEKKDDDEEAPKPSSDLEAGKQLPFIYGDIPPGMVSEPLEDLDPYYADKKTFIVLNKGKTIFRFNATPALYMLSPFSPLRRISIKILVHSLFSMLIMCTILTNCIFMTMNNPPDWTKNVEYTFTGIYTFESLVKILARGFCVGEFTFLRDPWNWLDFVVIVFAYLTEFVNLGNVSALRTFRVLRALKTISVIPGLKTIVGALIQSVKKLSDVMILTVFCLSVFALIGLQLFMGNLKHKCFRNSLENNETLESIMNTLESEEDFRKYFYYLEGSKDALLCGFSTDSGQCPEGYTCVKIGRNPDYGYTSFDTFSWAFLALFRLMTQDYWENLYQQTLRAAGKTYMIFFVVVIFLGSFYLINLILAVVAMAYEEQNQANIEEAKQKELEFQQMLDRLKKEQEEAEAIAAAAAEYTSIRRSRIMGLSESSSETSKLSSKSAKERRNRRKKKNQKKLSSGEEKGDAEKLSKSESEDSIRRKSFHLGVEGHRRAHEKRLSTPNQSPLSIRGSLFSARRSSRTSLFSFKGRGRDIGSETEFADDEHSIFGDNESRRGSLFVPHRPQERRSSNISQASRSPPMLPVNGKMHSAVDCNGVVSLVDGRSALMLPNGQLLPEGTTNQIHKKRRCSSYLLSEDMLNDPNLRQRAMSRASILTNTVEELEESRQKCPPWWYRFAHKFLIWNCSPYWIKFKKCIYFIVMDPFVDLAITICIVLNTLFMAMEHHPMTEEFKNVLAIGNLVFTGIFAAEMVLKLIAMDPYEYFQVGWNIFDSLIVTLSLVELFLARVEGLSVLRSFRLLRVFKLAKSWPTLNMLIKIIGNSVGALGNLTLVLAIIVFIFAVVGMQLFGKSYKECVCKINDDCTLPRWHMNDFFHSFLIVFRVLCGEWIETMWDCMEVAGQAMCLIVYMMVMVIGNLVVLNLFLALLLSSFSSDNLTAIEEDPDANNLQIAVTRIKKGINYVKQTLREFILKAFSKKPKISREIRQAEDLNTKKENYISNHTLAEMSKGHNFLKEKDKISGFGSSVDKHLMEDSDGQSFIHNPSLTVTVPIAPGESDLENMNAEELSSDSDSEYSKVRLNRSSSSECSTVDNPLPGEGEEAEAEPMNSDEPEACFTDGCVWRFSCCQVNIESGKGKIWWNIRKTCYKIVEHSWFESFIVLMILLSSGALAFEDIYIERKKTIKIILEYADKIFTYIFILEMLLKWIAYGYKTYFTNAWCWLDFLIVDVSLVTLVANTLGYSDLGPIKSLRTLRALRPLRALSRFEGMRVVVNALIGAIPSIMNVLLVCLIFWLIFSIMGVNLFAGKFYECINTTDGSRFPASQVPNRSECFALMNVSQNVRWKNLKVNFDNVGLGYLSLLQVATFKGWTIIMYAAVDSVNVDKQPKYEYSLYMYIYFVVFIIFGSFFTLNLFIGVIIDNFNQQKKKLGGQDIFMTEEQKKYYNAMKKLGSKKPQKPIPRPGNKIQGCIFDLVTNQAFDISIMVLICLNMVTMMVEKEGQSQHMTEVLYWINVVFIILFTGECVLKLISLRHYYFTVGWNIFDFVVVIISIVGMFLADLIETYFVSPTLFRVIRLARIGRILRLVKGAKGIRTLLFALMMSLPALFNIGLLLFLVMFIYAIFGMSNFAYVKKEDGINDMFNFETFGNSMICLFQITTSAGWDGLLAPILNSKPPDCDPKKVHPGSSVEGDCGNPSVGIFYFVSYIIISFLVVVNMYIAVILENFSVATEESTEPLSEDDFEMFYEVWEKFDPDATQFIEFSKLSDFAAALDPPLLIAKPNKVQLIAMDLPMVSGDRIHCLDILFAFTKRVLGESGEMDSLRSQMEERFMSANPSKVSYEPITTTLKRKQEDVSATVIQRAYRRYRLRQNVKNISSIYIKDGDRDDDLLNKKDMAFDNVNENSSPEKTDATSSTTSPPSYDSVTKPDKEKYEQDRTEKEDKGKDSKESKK
T1 sequence (Q07699 19-218, further chain): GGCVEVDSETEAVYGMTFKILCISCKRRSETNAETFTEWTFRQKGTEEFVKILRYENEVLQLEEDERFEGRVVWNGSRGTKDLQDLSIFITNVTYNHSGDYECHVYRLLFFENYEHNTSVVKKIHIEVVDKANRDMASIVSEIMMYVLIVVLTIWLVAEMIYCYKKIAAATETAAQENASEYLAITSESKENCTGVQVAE
Text: We next investigated the critical residues in DIIS3-S4 linker that determined the sensitivity of Nav1.7 to JZTX-34. An acidic residue, D816, is present in the DIIS3-S4 linker of Nav1.7, while the corresponding residue in Nav1.5 is an alkaline amino acid, R800. To determine whether the acidic residue D816 occupies an important role in toxin binding, we constructed two mutants: D816R of Nav1.7 and R800D of Nav1.5. One µM of JZTX-34 inhibited 54.3 ± 5.2% of WT Nav1.7 currents (Figure 4A), but only 16.8 ± 4.6% currents of D816R were inhibited at the same concentration (Figure 4B). […] To further confirm the key role of D816R in blocking Nav1.7 by JZTX-34, we examined the effect of JZTX-34 on Nav1.5 mutant R800D. […] Thus, the acidic residue D816 in DIIS3-S4 linker may be critical for the sensitivity of Nav1.7 to JZTX-34.
Figure 4 Effects of JZTX-34 on mutants of Nav1.7 and Nav1.5. (A) Amino acid sequence alignment of DII S3-S4 linker of Nav1.5 and Nav1.7 and schematic diagram of sodium channel α subunit. The positions of amino acids of interest are shaded in bold black. […]
as §1, §2
Data from Axon 700B patch clamp were analyzed by Clampfit10.0 (Molecular Devices, Sunnyvale, CA, USA). […] The G-V curves were obtained by calculating the conductance (G) at each voltage (V) using the equation G = I/(V1 − Vrev), with Vrev being the reversal potential determined for each cell individually. […]

## CC(C)C[C@@H]1NC(=O)[C@H](Cc2c[nH]c3ccccc23)NC(=O)[C@H](CCC(=O)O)NC(=O)[C@H](CCCNC(=N)N)NC(=O)[C@@H](NC(=O)[C@H](C)N)CSSC[C@@H]2NC(=O)[C@@H]3CSSC[C@@H](C(=O)N[C@H](C(=O)N[C@@H](Cc4c[nH]c5ccccc45)C(=O)N[C@@H](CC(=O)O)C(=O)N[C@@H](Cc4c[nH]c5ccccc45)C(=O)N[C@H](C(=O)N[C@H](C(=O)O)C(C)C)[C@@H](C)O)C(C)C)NC(=O)[C@H](Cc4c[nH]cn4)NC(=O)[C@H](Cc4ccc(O)cc4)NC(=O)[C@@H]4CCCN4C(=O)[C@H](Cc4c[nH]c5ccccc45)NC(=O)[C@H](CCCCN)NC(=O)[C@H](CCCCN)NC(=O)[C@H](CCCNC(=N)N)NC(=O)[C@H](CSSC[C@H](NC(=O)CNC(=O)CNC1=O)C(=O)N[C@@H](CO)C(=O)N[C@@H](CCCCN)C(=O)N[C@@H](CC(=O)O)C(=O)N[C@@H](C)C(=O)N[C@@H](CC(=O)O)C(=O)N3)NC(=O)[C@H](CCC(=O)O)NC(=O)[C@H](CC(C)C)NC(=O)[C@H](Cc1c[nH]cn1)NC(=O)[C@H](C)NC2=O [JZTX-34, Jingzhaotoxin-34] (HELM PEPTIDE1{A.C.R.E.W.L.G.G.C.S.K.D.A.D.C.C.A.H.L.E.C.R.K.K.W.P.Y.H.C.V.W.D.W.T.V}$PEPTIDE1,PEPTIDE1,2:R3-16:R3|PEPTIDE1,PEPTIDE1,9:R3-21:R3|PEPTIDE1,PEPTIDE1,15:R3-29:R3$$$V2.0; N-terminus and C-terminus assumed)
[1]; 1 µM
  inhibition of chimera #2 currents: 43.6 ± 4.5%
[1]; 10 µM
  inhibition of chimera #2 currents: 76.3 ± 3.6%
Nav1.7 D816R; HEK293, 1 µM, read-out: inhibition of Nav1.7 D816R currents
  inhibition at 1 µM: 16.8 ± 4.6%
Nav1.7 D816R; Hill fit, n = 5
  IC50: 19.5 µM
Nav1.7 D816R; relative to WT Nav1.7
  decrease of binding affinity by D816R vs WT Nav1.7: about 32 fold
